Reference: paper PMC9610702, “Synthesis, Characterization, and Biological Evaluation of Tetrahydropyrimidines: Dual-Activity and Mechanism of Action” (Pharmaceutics, 2022)
≈ marks a conversion by molar mass, not a printed value. Read-outs that look alike come from different tables or passages of the source.

Columns and labels:
[1] = biological target: α-glucosidase; assay: α-glucosidase inhibitory activity; format: biochemical; conditions: average ± SD of two experiments
Description: (§1) All materials and methods used for biological examination (antibacterial, antifungal, anticancer, and α-glucosidase inhibitory activities) and crystal structure determination are presented in the Supplementary Materials, File S1.

[2] = system: Trichophyton mentagrophytes; assay: antifungal MIC, broth tube dilution; format: cell-based
Description: (§2) In this paper, the synthesis, characterization, and biological evaluation of the novel tetrahydropyrimidines—THPMs are described. THPMs are well-known for wide pharmacological activities such as antimicrobial, anticancer, antiviral, etc. This research includes obtained results of in vitro antimicrobial, anticancer, and α-glucosidase inhibitory activities of the eleven novel THPMs. An antibiotic assessment was done against five bacteria (two Gram-positive and three Gram-negative) and five fungi by determining the minimal inhibitory concentration (MIC), using the broth tube dilution method. […] The cytotoxic activity was performed on the tumor cell lines (HeLa, K562, and MDA-MB-231) and normal cells (MRC-5). The best antitumor activity was shown by compounds 4b and 4k against HeLa cell lines.
as §1

[3] = system: Penicillium italicum; assay: antifungal MIC, broth tube dilution; format: cell-based
Description: as §2, §1

[4] = system: Mucor mucedo; assay: antifungal MIC, broth tube dilution; format: cell-based
Description: as §2, §1

[5] = system: Aspergillus flavus; assay: antifungal MIC, broth tube dilution; format: cell-based
Description: as §2, §1

[6] = system: Aspergillus niger; assay: antifungal MIC, broth tube dilution; format: cell-based
Description: as §2, §1

[7] = system: Proteus mirabilis; assay: antibacterial MIC, broth tube dilution; format: cell-based; conditions: ND = not detected, read-out: MIC
Description: as §2, §1

[8] = system: Escherichia coli; assay: antibacterial MIC, broth tube dilution; format: cell-based
Description: as §2, §1

[9] = system: Staphylococcus aureus; assay: antibacterial MIC, broth tube dilution; format: cell-based
Description: as §2, §1

[10] = system: Klebsiella oxytoca; assay: antibacterial MIC, broth tube dilution; format: cell-based
Description: as §2, §1

[11] = system: Bacillus subtilis; assay: antibacterial MIC, broth tube dilution; format: cell-based
Description: as §2, §1

[12] = system: HeLa cells; assay: cytotoxic activity; format: cell-based; conditions: for IC50: HeLa, three independent experiments in triplicate, read-out: IC50 Average ± SD
Description: (§3) All materials and methods used for biological examination (antibacterial, antifungal, anticancer, and α-glucosidase inhibitory activities) and crystal structure determination are presented in the Supplementary Materials, File S1. The cytotoxic activity of eleven novel compounds was examined against HeLa, K562, MDA-MB-231, and MRC-5. The tested compounds exerted concentration-dependent cytotoxic effects on cell lines. […] Compared to compound 4j, 4k has a methyl group in para position of benzoyl fragment; so, probably this structural difference is responsible for better activity and selectivity of compound 4k on HeLa (43.63 ± 1.49 µM) and K562 (39.11 ± 2.90 µM).

[13] = system: MDA-MB-231 cells; assay: cytotoxic activity; format: cell-based; conditions: three independent experiments in triplicate, read-out: IC50 Average ± SD
Description: as §3

[14] = system: K562 cells; assay: cytotoxic activity; format: cell-based; conditions: for IC50: K562, three independent experiments in triplicate, read-out: IC50 Average ± SD
Description: as §3

[15] = system: normal human lung fibroblasts MRC-5; assay: cytotoxic activity on normal cells; format: cell-based; conditions: MRC5, MRC-5 normal fibroblasts, three independent experiments in triplicate, read-out: IC50 Average ± SD
Description: as §1
The cytotoxic activity of eleven novel compounds was examined against HeLa, K562, MDA-MB-231, and MRC-5.
The cytotoxic activity was examined against HeLa, K562, MDA-MB-231 cells, and normal human lung fibroblasts MRC-5. […] In addition, the effects of the 4k and 4b on the cell cycle were examined.

[16] = system: HeLa cells; assay: cell-cycle phase distribution; format: cell-based; conditions: 24 h, IC50 and 2IC50 concentrations, vs untreated control
Description: as §1
The observed changes in the amounts of treated cells within subG1 and G1 phases of the cell cycle were accompanied with decreased percentages of cells within the S and G2/M phases.
The data shown represent the average ± standard deviation of two independent experiments.

[17] = system: HeLa cells; assay: morphological evaluation of cell death mode, acridine orange/ethidium bromide staining; format: cell-based; conditions: 24 h, 2IC50 concentration
Procedure: as §1
The photomicrographs of control HeLa cells and HeLa cells incubated for 24 h with 2IC50 concentrations of the compounds 4b and 4k and stained with a mixture of acridine orange/ethidium bromide are presented in Figure 5. […] Orange-red-stained shrunken cells with condensed chromatin in later stages of apoptosis were detected as well. […] The proapoptotic effect of compound 4b was to some extent stronger when comparing with effect of compound 4k.
Figure 5 Photomicrographs of acridine orange/ethidium bromide-stained control HeLa cells and HeLa cells incubated with 2IC50 concentrations of compounds 4b and 4k during 24 h (magnification 20×). Representative photomicrographs are shown.

| Compound | IC50 [1] [µM] | MIC [2] [µg/mL] | MIC [3] [µg/mL] | MIC [4] [µg/mL] | MIC [5] [µg/mL] | MIC [6] [µg/mL] | MIC [7] [µg/mL] | MIC [8] [µg/mL] | MIC [9] [µg/mL] | MIC [10] [µg/mL] | MIC [11] [µg/mL] | IC50 ([12]; Homo sapiens) [µM] | IC50 ([13]; Homo sapiens) [µM] | IC50 ([14]; Homo sapiens) [µM] | IC50 [15] [µM] | other results |
| --- | --- | --- | --- | --- | --- | --- | --- | --- | --- | --- | --- | --- | --- | --- | --- | --- |
| OC(Cn1cncn1)(Cn1cncn1)c1ccc(F)cc1F [Fluconazole, reference compound] | – | 250 (≈ 0.816 mM) | 1000 (≈ 3.27 mM) | 1000 (≈ 3.27 mM) | 1000 (≈ 3.27 mM) | 500 (≈ 1.63 mM) | – | – | – | – | – | – | – | – | – | – |
| [H]/N=C(/N)N[C@H]1[C@H](O)[C@@H](O)[C@H](O[C@@H]2O[C@@H](C)[C@](O)(C=O)[C@H]2O[C@@H]2O[C@@H](CO)[C@H](O)[C@@H](O)[C@@H]2NC)[C@@H](N/C(N)=N\[H])[C@@H]1O [Streptomycin, reference compound] | – | – | – | – | – | – | 62 (≈ 0.107 mM) | 62 (≈ 0.107 mM) | 31 (≈ 0.0533 mM) | 8 (≈ 0.0138 mM) | 16 (≈ 0.0275 mM) | – | – | – | – | – |
| N.N.[Cl][Pt][Cl] [cisPt, reference compound] | – | – | – | – | – | – | – | – | – | – | – | – | – | – | – | IC50 [12]: 4.91 ± 0.74 µM; IC50 [13]: 14.7 ± 0.36 µM; IC50 [14]: 6.89 ± 0.21 µM |

Second part, led by results:

| IC50 [1] [µM] | MIC [2] [µg/mL] | MIC [3] [µg/mL] | MIC [4] [µg/mL] | MIC [5] [µg/mL] | MIC [6] [µg/mL] | MIC [7] [µg/mL] | MIC [8] [µg/mL] | MIC [9] [µg/mL] | MIC [10] [µg/mL] | MIC [11] [µg/mL] | Compound | IC50 ([12]; Homo sapiens) [µM] | IC50 ([13]; Homo sapiens) [µM] | IC50 ([14]; Homo sapiens) [µM] | IC50 [15] [µM] | other results |
| --- | --- | --- | --- | --- | --- | --- | --- | --- | --- | --- | --- | --- | --- | --- | --- | --- |
| 192 ± 5.95 | 400 (≈ 1.1 mM) | 1620 (≈ 4.45 mM) | 1620 (≈ 4.45 mM) | 1620 (≈ 4.45 mM) | 1620 (≈ 4.45 mM) | 810 (≈ 2.22 mM) | 1620 (≈ 4.45 mM) | 3250 (≈ 8.92 mM) | 1620 (≈ 4.45 mM) | 3250 (≈ 8.92 mM) | COC(=O)C1=C(C)N(C)C(=S)NC1c1ccc(OC(C)=O)c(OC)c1 (stereo not drawn) [4g] | 197 ± 3.55 | > 200 | 153 ± 2.58 | 193 ± 9.59 | – |
| 933 ± 25.2 | 810 (≈ 2.14 mM) | 1620 (≈ 4.28 mM) | 1620 (≈ 4.28 mM) | 1620 (≈ 4.28 mM) | 1620 (≈ 4.28 mM) | 3250 (≈ 8.59 mM) | 3250 (≈ 8.59 mM) | 3250 (≈ 8.59 mM) | 3250 (≈ 8.59 mM) | 3250 (≈ 8.59 mM) | CCOc1cccc(C2NC(=S)N(C)C(C)=C2C(=O)OC)c1OC(C)=O (stereo not drawn) [4h] | 121 ± 9.96 | 114 ± 12.9 | 79.9 ± 6.73 | 77.8 ± 2.57 | – |
| – | 400 (≈ 0.938 mM) | 1620 (≈ 3.8 mM) | 1620 (≈ 3.8 mM) | 1620 (≈ 3.8 mM) | 1620 (≈ 3.8 mM) | 1620 (≈ 3.8 mM) | 3250 (≈ 7.62 mM) | 3250 (≈ 7.62 mM) | 3250 (≈ 7.62 mM) | 3250 (≈ 7.62 mM) | COC(=O)C1=C(C)N(C)C(=S)NC1c1ccc(OC(=O)c2ccccc2)c(OC)c1 (stereo not drawn) [4j, methyl 4-(4′-benzoyloxy-3′-methoxyphenyl)-1,2,3,4-tetrahydro-1,6-dimethyl-2-thioxopyrimidine-5-carboxylate] | 78.1 ± 5.78 | 123 ± 2.19 | 68 ± 6.53 | 104 ± 8.61 | – |
| 1080 ± 54.5 | 200 (≈ 0.454 mM) | 1620 (≈ 3.68 mM) | 1620 (≈ 3.68 mM) | 810 (≈ 1.84 mM) | 1620 (≈ 3.68 mM) | 3250 (≈ 7.38 mM) | 3250 (≈ 7.38 mM) | 3250 (≈ 7.38 mM) | 3250 (≈ 7.38 mM) | 3250 (≈ 7.38 mM) | COC(=O)C1=C(C)N(C)C(=S)NC1c1ccc(OC(=O)c2ccc(C)cc2)c(OC)c1 (stereo not drawn) [4k] | 43.6 | 74.1 ± 1.25 | 39.1 ± 2.9 | 87.2 ± 7.31 | percentage of HeLa cells in the G1 phase [16]: pronounced increase; percentage of dead cells within subG1 phase [16]: increase; percentages of cells within the S and G2/M phases [16]: decreased; cell death mode (apoptosis) [17]: activate apoptosis; selectivity coefficient ([12]; HeLa compared with MRC-5 cells): 2; selectivity coefficient ([14]; K562 compared with MRC-5 cells): 2.23 |
